This is an account of results in patent publication US12661397B2, “Adjuvant comprising a glycoarchaeol and an immunostimulant” (priority 2021, dated 2026).

Assay [1] has as its system SARS-CoV-2 spike protein (SmT1). The experiment in a line: SARS-CoV-2 Spike-specific IgG ELISA in hamsters. Type of assay: in vivo, Syrian Golden hamsters. Particulars: 3 μg SmT1 i.m. Day 0 only, serum Day 34 (FIG. 15 lower). Background: ELISA stands for enzyme-linked immunosorbent assay.
A further assay has as its system OVA. The experiment in a line: Anti-OVA antibody ELISA of mouse serum. Type of assay: in vivo. To be noted: OVA-immunized mice, Day 28; 100 = limit of detection (FIG. 5). An excerpt:
Serum of mice immunized with OVA antigen alone (None) or formulated with SLA archaeosomes, other adjuvants (Poly(I:C), Resiquimod (R848), CpG, MPLA, QS-21, Pam3CSK4) or SLA in combination with other adjuvants was collected on Day 28 (7 days post 2nd immunization by intramuscular route) and analyzed for antigen-specific IgG antibodies by ELISA. Grouped data is presented as geometric mean titer+95% Confidence Interval (n=10/group).
Serum of mice immunized with OVA antigen alone (none) or formulated with SLA archaeosomes, other adjuvants (Poly(I:C), Resiquimod (R848), CpG, MPLA, QS-21, Pam3CSK4) or SLA in combination with other adjuvants was collected on Day 28 (7 days post 2nd immunization) and analyzed for antigen-specific IgG2c antibodies by ELISA. Grouped data is presented as geometric mean titer+95% Confidence Interval (n=10/group).
The levels of anti-OVA or anti-HBsAg antibodies (Abs) in mouse serum were quantified by ELISA using 96-well high-binding ELISA plates (Thermo Fisher Scientific, Waltham, MA, USA) coated overnight at room temperature (RT) with 100 μL of 10 μg/mL OVA (Sigma-Aldrich, St. Louis, MO, USA) in PBS or 1 μg/mL HBsAg (Fitzgerald Industries International) in 16 mM sodium carbonate/34 mM sodium bicarbonate buffer, pH 9.6 (Sigma-Aldrich). […] Bound IgG Abs were detected spectrophotometrically at 450 nm. […]

Regarding `CC(C)CCCC(C)CCCC(C)CCCC(C)CCOC[C@@H](CO[C@@H]1O[C@H](CO)[C@@H](O[C@@H]2O[C@H](COS(=O)(=O)O)[C@H](O)[C@H](O)[C@H]2O)[C@H](O)[C@H]1O)OCCC(C)CCCC(C)CCCC(C)CCCC(C)C` (stereo partly drawn) [SLA, 6′-sulfate-β-D-Galp-(1,4)-β-D-Glcp-(1,1)-archaeol], the “Anti-spike IgG GMT, prime only regimen” value in assay [1] is 6,050. In addition, in the assay on OVA, the “anti-OVA IgG2c titer” value stood at 100.

On to “polyinosinic-polycytidylic acid [Poly(I:C), reference compound]”, for which the “anti-OVA IgG2c titer” value in the assay with OVA is 5420.
